Measurements published in US20020026053A1, “Novel 3-(substituted) -2- indolinones compounds and use thereof as inhibitors of protein kinase activity” (priority 1997, published 2002).

These compounds were tested against T1, EGFR (Homo sapiens, UniProt P00533) (assay: Biochemical EGFR Assay). Details: protocol P.167.
T1 construct: endogenous in cells; host or cells: A431 cells (lysate, captured with SUMO1 anti-EGFR antibody)
T1 sequence (P00533 25-1210): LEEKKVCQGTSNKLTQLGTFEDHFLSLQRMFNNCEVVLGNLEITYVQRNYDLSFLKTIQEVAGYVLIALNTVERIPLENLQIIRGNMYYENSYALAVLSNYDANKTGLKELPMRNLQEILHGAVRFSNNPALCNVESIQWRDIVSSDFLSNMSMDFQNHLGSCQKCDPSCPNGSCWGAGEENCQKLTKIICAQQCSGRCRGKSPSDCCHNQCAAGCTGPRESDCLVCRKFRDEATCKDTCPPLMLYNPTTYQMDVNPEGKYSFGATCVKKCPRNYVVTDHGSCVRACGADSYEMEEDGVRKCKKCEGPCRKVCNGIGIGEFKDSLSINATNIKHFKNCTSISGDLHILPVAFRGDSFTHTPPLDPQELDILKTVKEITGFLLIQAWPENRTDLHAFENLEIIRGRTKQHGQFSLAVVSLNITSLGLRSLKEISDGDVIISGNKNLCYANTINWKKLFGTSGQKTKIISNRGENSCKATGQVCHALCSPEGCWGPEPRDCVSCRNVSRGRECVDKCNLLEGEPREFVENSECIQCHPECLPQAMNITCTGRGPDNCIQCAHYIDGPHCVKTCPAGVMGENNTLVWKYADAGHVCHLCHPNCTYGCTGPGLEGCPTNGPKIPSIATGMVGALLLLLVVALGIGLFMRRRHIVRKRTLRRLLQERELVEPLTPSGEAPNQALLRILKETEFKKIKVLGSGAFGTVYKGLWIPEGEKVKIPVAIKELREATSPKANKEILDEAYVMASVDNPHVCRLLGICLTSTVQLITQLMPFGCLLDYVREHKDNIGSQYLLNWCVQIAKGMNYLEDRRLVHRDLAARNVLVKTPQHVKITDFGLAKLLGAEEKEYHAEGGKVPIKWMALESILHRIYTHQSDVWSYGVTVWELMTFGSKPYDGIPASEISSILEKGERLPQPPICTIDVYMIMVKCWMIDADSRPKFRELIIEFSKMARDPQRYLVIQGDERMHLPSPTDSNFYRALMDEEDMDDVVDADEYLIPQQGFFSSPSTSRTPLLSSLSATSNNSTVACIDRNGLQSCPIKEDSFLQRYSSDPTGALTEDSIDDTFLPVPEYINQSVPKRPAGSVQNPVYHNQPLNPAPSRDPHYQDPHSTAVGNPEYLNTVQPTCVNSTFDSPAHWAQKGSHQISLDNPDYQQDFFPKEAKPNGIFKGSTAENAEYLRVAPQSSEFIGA
Parameters: concentration or dose not given beside the values
Procedure, shortened: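 EGFR from A431 lysate was captured on anti-EGFR-coated wells and preincubated 30 min with compound (diluted 1:10 in TBS) at room temperature. After ATP/MnCl2 phosphorylation for 5 min, the reaction was stopped with EDTA. Phosphotyrosine was detected by ELISA (anti-phosphotyrosine, peroxidase conjugate, ABTS) at 410 nm.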
In the case of `O=C1Nc2ccc(S(=O)(=O)Nc3ccc(C(F)(F)F)cc3)cc2C1=Cc1ccc(Oc2ccccc2)cc1` [10737/E09], the “Biochem EGFR % Inhibition (P.167)” value is reported as −0.7%. `CNS(=O)(=O)c1ccc2c(c1)C(=Cc1cccc(Oc3cccc(C(F)(F)F)c3)c1)C(=O)N2` [10737/D11] was tested, and the “Biochem EGFR % Inhibition (P.167)” value was −2.3%. `Cc1c(Br)cc(Br)c2c1C(=Cc1cccc(F)c1)C(=O)N2` [10736/H07] was tested, and the “Biochem EGFR % Inhibition (P.167)” value was 52.2%. In the case of `O=C1Nc2ccc(CCCl)cc2C1=Cc1cccc(Oc2cccc(C(F)(F)F)c2)c1` [10737/G11], the “Biochem EGFR % Inhibition (P.167)” value is reported as 2.8%. `CCOc1ccc(C=C2C(=O)Nc3ccc(S(=O)(=O)Nc4ccc(C(F)(F)F)cc4)cc32)cc1` [10737/E02] was tested, and the “Biochem EGFR % Inhibition (P.167)” value was 6.7%. With `Cc1c(Br)ccc2c1C(=Cc1cc(F)ccc1F)C(=O)N2` [10737/C04] the “Biochem EGFR % Inhibition (P.167)” value was 14.4%. In the case of `O=C1Nc2c(Br)cc(Br)cc2C1=Cc1cc(F)ccc1F` [10737/A04], the “Biochem EGFR % Inhibition (P.167)” value is reported as 29.4%. In the case of `CCc1ccc(C=C2C(=O)Nc3c(Br)cc(Br)c(C)c32)cc1` [10736/H09], the “Biochem EGFR % Inhibition (P.167)” value is reported as 35.7%. In the case of `O=C1Nc2ccc(I)cc2C1=Cc1ccc(Oc2ccccc2)cc1` [10737/B09], the “Biochem EGFR % Inhibition (P.167)” value is reported as 26.4%. `O=C1Nc2c(Br)cc(Br)cc2C1=Cc1ccc(Oc2ccccc2)cc1` [10737/A09] was tested, and the “Biochem EGFR % Inhibition (P.167)” value was 36.0%. `Cc1ccc(C)c(C=C2C(=O)Nc3ccc(S(=O)(=O)N4CCOCC4)cc32)c1` [10737/F07] was tested, and the “Biochem EGFR % Inhibition (P.167)” value was −25.5%.
